These results are taken from patent publication US8927500B2, “Peptidomimetic macrocycles” (Aileron Therapeutics, Inc., priority 2012, dated 2015).

Where two headings read alike, the source gives them in different places. Where a SMILES comes first, the peptide text is derived from it. Bridges are numbered along the chain shown (N, C = ends). [ ]: non-standard residue; d: D form. R8 = C=CCCCCCC[C@@](C)(N)C(=O)O; Cba = N[C@@H](CC1CCC1)C(=O)O; S5 = C=CCCC[C@](C)(N)C(=O)O; Nle = CCCC[C@H](N)C(=O)O; Aib = CC(C)(N)C(=O)O

The target of one experiment is T1, MDMX (Homo sapiens, UniProt O15151).
T1 sequence (O15151 1-125): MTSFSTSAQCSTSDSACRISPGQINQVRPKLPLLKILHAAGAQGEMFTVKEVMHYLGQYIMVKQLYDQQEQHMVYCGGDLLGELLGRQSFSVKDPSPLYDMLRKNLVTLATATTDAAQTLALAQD
Description: Competitive fluorescence polarization assay for MDMX. The note with it: competitive FP assay; for IC50: read-out: IC50 (MDMX). It counts as binding. (In general: Fluorescence polarisation rises when a labelled molecule tumbles more slowly, as on binding a larger partner.)

For a further experiment, the target named is MDM2 (Homo sapiens, UniProt Q00987). Description: Competitive fluorescence polarization assay for MDM2. It counts as binding. The following applies: competitive FP assay, MDM2; for IC50: read-out: IC50 (MDM2).
MDM2, sequence (Q00987 1-125): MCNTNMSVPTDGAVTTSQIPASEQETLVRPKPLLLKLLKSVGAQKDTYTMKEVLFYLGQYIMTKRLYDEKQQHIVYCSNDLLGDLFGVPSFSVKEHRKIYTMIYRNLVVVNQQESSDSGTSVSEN

In the case of `CC(=O)N[C@@H](CC(C)C)C(=O)N[C@H](C(=O)N[C@@H](Cc1ccccc1)C(=O)N[C@]1(C)CCCCCCC=CCCC[C@@](C)(C(=O)N[C@@H](C)C(=O)N[C@@H](C)C(=O)N[C@@H](C)C(=O)N[C@@H](C)C(=O)N[C@@H](C)C(=O)N[C@H](C)C(N)=O)NC(=O)[C@H](CC(C)C)NC(=O)[C@H](CCC(N)=O)NC(=O)[C@H](C)NC(=O)[C@H](Cc2c[nH]c3ccccc23)NC(=O)[C@H](Cc2ccc(O)cc2)NC(=O)[C@H](CCCNC(=N)N)NC1=O)[C@@H](C)O` [compound 598] (Ac-LTF[R8]RYWAQL[S5]AAAAA[dA]-NH2; staple 4-11), the Ki – broadly, the dissociation constant of the complex between target and ligand, obtained from inhibition or displacement – at MDMX (Ki (MDMX)) is 10 to 100 nM; on MDM2 (Ki (MDM2)), less than 10 nM.

For the compound `CC(=O)N[C@@H](CC(C)C)C(=O)N[C@H](C(=O)N[C@@H](Cc1ccccc1)C(=O)N[C@]1(C)CCCCCCC=CCCC[C@@](C)(C(=O)N[C@@H](C)C(=O)N[C@@H](C)C(=O)N[C@@H](C)C(=O)N[C@@H](C)C(=O)N[C@@H](C)C(=O)N[C@H](C)C(N)=O)NC(=O)[C@H](CC(C)C)NC(=O)[C@H](Cc2c[nH]cn2)NC(=O)[C@H](C)NC(=O)[C@H](Cc2c[nH]c3ccccc23)NC(=O)[C@H](Cc2ccc(O)cc2)NC(=O)[C@H](CCC(=O)O)NC1=O)[C@@H](C)O` [compound 613] (Ac-LTF[R8]EYWAHL[S5]AAAAA[dA]-NH2; staple 4-11), the results for the inhibition constant (Ki) on MDMX (read-out: Ki (MDMX)) and on MDM2 (read-out: Ki (MDM2)) were 10 to 100 nM and less than 10 nM, respectively.

With `CCCC[C@H](NC(=O)[C@H](C)NC(=O)[C@H](C)NC(=O)[C@]1(C)CCCC=CCCCCCC[C@@](C)(NC(=O)[C@H](Cc2ccccc2)NC(=O)[C@@H](NC(=O)[C@H](CC(C)C)NC(=O)CN(C)C)[C@@H](C)O)C(=O)N[C@@H](C)C(=O)N[C@@H](Cc2ccc(O)cc2)C(=O)N[C@@H](Cc2c[nH]c3ccccc23)C(=O)N[C@@H](C)C(=O)N[C@@H](CCC(N)=O)C(=O)N[C@@H](CC(C)C)C(=O)N1)C(=O)N[C@@H](C)C(N)=O` (single isomer, unassigned) [compound 443], the IC50 at MDMX and on MDM2 was 10 to 100 nM each time. The values for the Ki at MDMX (read-out: Ki (MDMX)) and on MDM2 (read-out: Ki (MDM2)) were 10 to 100 nM and less than 10 nM, respectively.

For `CC(=O)N[C@@H](C)C(=O)N[C@@H](CC(C)C)C(=O)N[C@H](C(=O)N[C@@H](Cc1ccccc1)C(=O)N[C@]1(C)CCCCCCC=CCCC[C@@](C)(C(=O)N[C@@H](CO)C(=O)N[C@@H](C)C(=O)N[C@@H](C)C(N)=O)NC(=O)[C@H](CC2CCC2)NC(=O)[C@H](CCC(N)=O)NC(=O)[C@H](C)NC(=O)[C@H](Cc2c[nH]c3ccccc23)NC(=O)[C@H](Cc2ccc(O)cc2)NC(=O)[C@H](CCC(=O)O)NC1=O)[C@@H](C)O` (single isomer, unassigned) [compound 328], the IC50 on MDMX and on MDM2 was 10 to 100 nM each time. For the same compound, the inhibition constant Ki was 10 to 100 nM on MDMX (read-out: Ki (MDMX)) and less than 10 nM at MDM2 (read-out: Ki (MDM2)).

In the case of `CCCC[C@H](NC(=O)[C@H](Cc1c[nH]c2ccccc12)NC(=O)[C@H](C)NC(=O)[C@]1(C)CCCC=CCCCCCC[C@@](C)(NC(=O)[C@H](Cc2ccccc2)NC(=O)[C@@H](NC(=O)[C@H](CC(C)C)NC(C)=O)[C@@H](C)O)C(=O)N[C@@H](CCC(=O)O)C(=O)N[C@@H](Cc2ccc(O)cc2)C(=O)N[C@@H](Cc2c[nH]c3ccccc23)C(=O)N[C@@H](C)C(=O)N[C@@H](CCC(N)=O)C(=O)N[C@@H](CC2CCC2)C(=O)N1)C(=O)N[C@H](C)C(N)=O` [compound 271] (Ac-LTF[R8]EYWAQ[Cba][S5]AW[Nle][dA]-NH2; staple 4-11), the 50% inhibitory concentration (IC50) (in general, the concentration at which inhibition is half-maximal) is 10 to 100 nM on MDMX and less than 10 nM at MDM2. Moreover, the Ki on MDMX (read-out: Ki (MDMX)) and at MDM2 (read-out: Ki (MDM2)) was less than 10 nM each time.

Take `CC(=O)N[C@@H](CC(C)C)C(=O)N[C@H](C(=O)N[C@@H](Cc1ccccc1)C(=O)N[C@]1(C)CCCCCCC=CCCC[C@@](C)(C(=O)N[C@@H](CO)C(=O)N[C@@H](C)C(=O)N[C@@H](C)C(N)=O)NC(=O)[C@H](CC(C)C)NC(=O)[C@H](C)NC(=O)[C@H](C)NC(=O)[C@H](Cc2c[nH]c3ccccc23)NC(=O)[C@H](CO)NC(=O)[C@H](C)NC1=O)[C@@H](C)O` (single isomer, unassigned) [compound 201]: the 50% inhibitory concentration (IC50) on MDMX was in the range of 100 to 1000 nM; on MDM2, 10 to 100 nM. In addition, the values for the Ki on MDMX (read-out: Ki (MDMX)) and at MDM2 (read-out: Ki (MDM2)) were 100 to 1000 nM and less than 10 nM, respectively.

Turning to `CC(=O)N[C@@H](CC(C)C)C(=O)N[C@H](C(=O)N[C@@H](Cc1ccccc1)C(=O)N[C@]1(C)CCCCCCC=CCCC[C@@](C)(C(=O)N[C@@H](C)C(=O)N[C@@H](C)C(=O)NC(C)(C)C(=O)N[C@@H](C)C(=O)N[C@@H](C)C(=O)N[C@H](C)C(N)=O)NC(=O)[C@H](CC(C)C)NC(=O)[C@H](CCC(N)=O)NC(=O)[C@H](C)NC(=O)[C@H](Cc2c[nH]c3ccccc23)NC(=O)[C@H](Cc2ccc(O)cc2)NC(=O)[C@H](CCC(=O)O)NC1=O)[C@@H](C)O` [compound 563] (Ac-LTF[R8]EYWAQL[S5]AA[Aib]AA[dA]-NH2; staple 4-11), the Ki on MDMX (read-out: Ki (MDMX)) and at MDM2 (read-out: Ki (MDM2)) was 10 to 100 nM in each case.

In the case of `CCCC[C@H](NC(=O)[C@H](C)NC(=O)[C@H](C)NC(=O)[C@]1(C)CCCC=CCCCCCC[C@@](C)(NC(=O)[C@H](Cc2ccccc2)NC(=O)[C@@H](NC(=O)[C@H](CC(C)C)NC(C)=O)[C@@H](C)O)C(=O)N[C@@H](C)C(=O)N[C@@H](Cc2ccc(O)cc2)C(=O)N[C@@H](Cc2c[nH]c3ccccc23)C(=O)N[C@@H](CO)C(=O)N[C@@H](CCC(N)=O)C(=O)N[C@@H](CCC(C)C)C(=O)N1)C(=O)N[C@@H](C)C(N)=O` (single isomer, unassigned) [compound 312], the figures for the IC50 on MDMX and at MDM2 were 100 to 1000 nM and 10 to 100 nM, respectively. Besides, the inhibition constant Ki on MDMX (read-out: Ki (MDMX)) and on MDM2 (read-out: Ki (MDM2)) was 10 to 100 nM each time.

Consider `CC(=O)N[C@@H](CCC(=O)O)C(=O)N[C@H](C(=O)N[C@@H](Cc1ccccc1)C(=O)N[C@]1(C)CCCCCCC=CCCC[C@@](C)(C(=O)N[C@@H](CO)C(=O)N[C@@H](C)C(=O)N[C@H](C)C(N)=O)NC(=O)[C@H](CC(C)C)NC(=O)[C@H](CCC(N)=O)NC(=O)[C@H](C)NC(=O)[C@H](Cc2c[nH]c3ccccc23)NC(=O)[C@H](Cc2ccc(O)cc2)NC(=O)[C@H](C(C)C)NC1=O)[C@@H](C)O` [compound 124] (Ac-ETF[R8]VYWAQL[S5]SA[dA]-NH2; staple 4-11), for which the values for the half-maximal inhibitory concentration (IC50) at MDMX and at MDM2 were 100 to 1000 nM and less than 10 nM, respectively. Besides, the Ki was 10 to 100 nM at MDMX (read-out: Ki (MDMX)) and less than 10 nM at MDM2 (read-out: Ki (MDM2)).

As for `CCCC[C@H](NC(=O)[C@H](C)NC(=O)[C@H](C)NC(=O)[C@]1(C)CCCC=CCCCCCC[C@@](C)(NC(=O)[C@H](Cc2ccccc2)NC(=O)[C@@H](NC(=O)[C@H](CC(C)C)NC(C)=O)[C@@H](C)O)C(=O)N[C@@H](C)C(=O)N[C@@H](Cc2ccc(O)cc2)C(=O)N[C@@H](Cc2c[nH]c3ccccc23)C(=O)N[C@@H](C)C(=O)N[C@@H](CCC(N)=O)C(=O)N[C@@H](CC(C)C)C(=O)N1)C(=O)N[C@@H](C)C(=O)N[C@H](C)C(N)=O` (single isomer, unassigned) [compound 408], the concentration for half-maximal inhibition (IC50) on MDMX and on MDM2 was 10 to 100 nM each time. Also, the figures for the inhibition constant Ki on MDMX (read-out: Ki (MDMX)) and at MDM2 (read-out: Ki (MDM2)) were 10 to 100 nM and less than 10 nM, respectively.

For `CC(=O)N[C@@H](CC(C)C)C(=O)N[C@H](C(=O)N[C@@H](Cc1ccccc1)C(=O)N[C@]1(C)CCCCCCC=CCCC[C@@](C)(C(=O)N[C@@H](CO)C(=O)N[C@@H](C)C(=O)N[C@@H](C)C(N)=O)NC(=O)[C@H](CC(C)C)NC(=O)[C@H](CCC(N)=O)NC(=O)[C@H](C)NC(=O)[C@H](Cc2c[nH]c3ccccc23)NC(=O)[C@H](CCC(=O)O)NC(=O)[C@H](C)NC1=O)[C@@H](C)O` (single isomer, unassigned) [compound 166], the IC50 on MDMX is 100 to 1000 nM; at MDM2, less than 10 nM. For the same compound, the results for the Ki on MDMX (read-out: Ki (MDMX)) and at MDM2 (read-out: Ki (MDM2)) were 10 to 100 nM and less than 10 nM, respectively.

Turning to `CC(=O)N[C@@H](CC(C)C)C(=O)N[C@H](C(=O)N[C@@H](Cc1ccccc1)C(=O)N[C@]1(C)CCCCCCC=CCCC[C@@](C)(C(=O)N[C@@H](C)C(=O)N[C@@H](C)C(=O)N[C@@H](C)C(=O)N[C@H](C)C(N)=O)NC(=O)[C@H](CC(C)C)NC(=O)[C@H](CCC(N)=O)NC(=O)[C@H](C)NC(=O)[C@H](Cc2c[nH]c3ccccc23)NC(=O)[C@H](Cc2ccc(O)cc2)NC(=O)[C@H](CCC(=O)O)NC1=O)[C@@H](C)O` [compound 586] (Ac-LTF[R8]EYWAQL[S5]AAA[dA]-NH2; staple 4-11), the results for the Ki at MDMX (read-out: Ki (MDMX)) and at MDM2 (read-out: Ki (MDM2)) were 10 to 100 nM and less than 10 nM, respectively.

For `CCCC[C@H](NC(=O)[C@H](C)NC(=O)[C@H](C)NC(=O)[C@]1(C)CCCC=CCCCCCC[C@@](C)(NC(=O)[C@H](Cc2ccccc2)NC(=O)[C@@H](NC(=O)[C@H](CC(C)C)NC(C)=O)[C@@H](C)O)C(=O)N[C@@H](C)C(=O)N[C@@H](Cc2ccc(O)cc2)C(=O)N[C@@H](Cc2c[nH]c3ccccc23)C(=O)N[C@@H](C)C(=O)N[C@@H](CCC(N)=O)C(=O)N[C@@H](CC(C)C)C(=O)N1)C(=O)N[C@@H](C)C(=O)O` (single isomer, unassigned) [compound 421], the concentration for half-maximal inhibition (IC50) on MDMX and at MDM2 was less than 10 nM throughout. Further, the Ki on MDMX (read-out: Ki (MDMX)) and at MDM2 (read-out: Ki (MDM2)) was less than 10 nM each time.

In the case of `CC(=O)N[C@@H](CC(C)C)C(=O)N[C@H](C(=O)N[C@@H](Cc1ccccc1)C(=O)N[C@]1(C)CCCCCCC=CCCC[C@@](C)(C(=O)N[C@@H](CO)C(=O)N[C@@H](CC(N)=O)C(=O)N[C@H](C)C(N)=O)NC(=O)[C@H](CC(C)C)NC(=O)[C@H](CCC(N)=O)NC(=O)[C@H](C)NC(=O)[C@H](Cc2c[nH]c3ccccc23)NC(=O)[C@H](Cc2ccc(O)cc2)NC(=O)[C@H](C(C)C)NC1=O)[C@@H](C)O` [compound 135] (Ac-LTF[R8]VYWAQL[S5]SN[dA]-NH2; staple 4-11), the 50% inhibitory concentration (IC50) was 100 to 1000 nM on MDMX and less than 10 nM at MDM2. Further, the Ki at MDMX (read-out: Ki (MDMX)) is 10 to 100 nM; on MDM2 (read-out: Ki (MDM2)) it was less than 10 nM.
